Read-outs that look alike come from different tables or passages of the source.
T1: hAQP1 (Homo sapiens, UniProt P29972)
T1 construct: made in house; host or cells: Spodoptera frugiperda (Sf9) insect cells, baculovirus vector pFB-LIC-Bse
T1 sequence (P29972 1-269): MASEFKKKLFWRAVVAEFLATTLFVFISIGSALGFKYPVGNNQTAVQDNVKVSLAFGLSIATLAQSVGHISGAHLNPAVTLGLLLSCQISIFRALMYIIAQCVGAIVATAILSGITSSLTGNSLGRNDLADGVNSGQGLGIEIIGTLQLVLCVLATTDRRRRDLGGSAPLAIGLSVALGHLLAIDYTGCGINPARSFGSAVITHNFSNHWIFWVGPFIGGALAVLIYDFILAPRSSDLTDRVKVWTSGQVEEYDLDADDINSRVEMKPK

T2: E. coli aquaporin Z (E. coli), P60844
T2 chain: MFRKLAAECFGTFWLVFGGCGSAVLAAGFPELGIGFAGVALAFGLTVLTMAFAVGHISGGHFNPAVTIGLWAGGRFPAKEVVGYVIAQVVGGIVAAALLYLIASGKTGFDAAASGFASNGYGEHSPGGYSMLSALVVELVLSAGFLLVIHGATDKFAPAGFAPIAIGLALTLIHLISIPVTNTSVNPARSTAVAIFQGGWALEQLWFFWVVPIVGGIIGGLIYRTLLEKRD

B1: E. coli aquaporin Z, P60844 1-231 (natural protein)
chain: T2 chain

How the values were obtained:
[1] = biological target: T1, hAQP1; assay: Thermal aggregation shift assay (differential static light scattering, DSLS); type: binding; design: key to ΔTagg (+/−): positive (+) Thermal Shift; ΔTagg (+/−); conditions: for ΔTagg (+/−): 1 mM of each fragment; for Tagg: hAQP1 incubated in 1 mM of fragment, hAQP1 alone 54.6 ± 0.1; for dose-dependency of hAQP1 stabilization: increasing concentration of fragment; for Tagg of hAQP1: secondary dose-response assay
Description: Temperature-dependent protein aggregation was measured with static light scattering (Stargazer-384, Harbinger Biotech, Markham, ON, Canada) as previously described with modifications. Briefly, purified hAQP1 in PBS pH 7.4 and 1% OG at a concentration of 0.2 mg/mL, incubated with test compound or fragment at the appropriate concentration at room temperature for 15 min, and aliquoted in a clear-bottom 384-well plate (Nunc, Roskilde, Denmark) to a volume of 45 µL in triplicate. The final concentration of DMSO was kept at 5%. Mineral oil (45 µL) covered the sample to prevent evaporation. The sample was heated from 25 to 80 °C at a rate of 1 °C per minute. Incident light was shone on the protein drop from beneath at a 30° angle, and a CCD camera was used to measure the scattered light intensity every 30 s to monitor protein aggregation. Data collated was analyzed using the Bioactive software (Harbinger Biotech). Intensities were plotted as a function of temperature and fitted to the Boltzmann equation by non-linear regression. The point of inflection of the fitted curve defined the temperature of aggregation (Tagg).

[2] = biological target: T1, hAQP1; assay: Surface plasmon resonance (SPR) fragment binding to immobilized hAQP1; conditions: for SPR binding behaviour: sensorgrams 6.25 to 800 µM
Description: Surface Plasmon Resonance measurements were performed using Biacore T-200 (GE Healthcare, Uppsala, Sweden) using the running buffer PBS pH 7.4 supplemented with 1% OG and 5% dimethylsulfoxide (DMSO) at 25 °C. Purified recombinant hAQP1 was directly immobilized onto Biacore Sensor Chip CM5 Research Grade (GE Healthcare, Little Chalfont, UK) using standard amine-coupling chemistry at a flow rate of 5 µL/min. Carboxyl derivatives on CM5 dextran surface were activated with a 10-min 1:1 mixture of 0.2 M N-ethyl-N′-(3-([…])propyl)carbodiimide (EDC) and 50 mM N-hydroxysuccinimide (NHS). The aquaporins were diluted in 10 mM sodium acetate, pH 5.0 and injected across the surface separately. Addition of 0.5 M ethanolamine–HCl at pH 8.5 for 10 min was used to block unreacted activated carboxyl derivates.
The Maybridge Ro3 Diversity Fragment Library (Thermo Fisher Scientific, Waltham, MA, USA) consisting of 1500 fragments was used for screening. These fragments have molecular weight ranging from 82.1 to 295.3 Da, with an experimental guarantee of solubility of ≥1 mM in aqueous phosphate buffer and ≥200 mM in DMSO. They satisfy the “rule of three” criteria, i.e., a molecular weight of ≤300 Da, a cLogP of ≤3.0, ≤3 H-bond acceptors or H-bond donors, ≤3 rotatable bonds, and a polar surface area of ≤60 Å^2. Lyophilized powder of each fragments were pre-dissolved in 100% DMSO prior to the screening campaign. A volume of 10 µL of a 4 mM stock solution of each fragment in 100% DMSO was added to 190 µL of a buffer composed of 1.06 × PBS + 1.06% OG so as to obtain a final fragment concentration of 200 µM in PBS + 1% OG + 5% DMSO in a volume of 200 µL. We note that although a higher screening concentration in the mM range would in principle result in higher protein surface occupancy, allowing the detection of weaker interactions, this may also increase the probability of non-specific binding and/or promiscuously binding colloidal aggregates. In addition, the presence of salt and detergent in the buffer helps to stabilize the hAQP1 and also reduces the chances of non-specific binding. The DMSO solvent has a high refractive index and can be a major cause of false positives and plate-to-plate baseline variations. Therefore, it was important to accurately match its concentration in the sample buffer and the running buffer throughout the screening to minimize data inconsistencies during analysis.
The fragments were injected across a reference channel and hAQP1 channel for 2 min at flow rate of 30 µL/min, and then allowed to dissociate in running buffer for another min. Each fragment was injected in duplicates. DMSO calibration was performed for DMSO correction. Reproducibility was monitored with duplicate injections of each sample. No regeneration step was necessary as all fragments were dissociated. Previously validated positive controls, NSC226080 and NSC624169 (not shown), were included over the course of screening to monitor the surface protein activity.
These fragments, together with the positive controls, were diluted into 25, 50, 100 and 200 µM and tested over the same surfaces under the same conditions. DMSO calibration was performed for DMSO correction. Non-stoichiometric binders (potential fragments that aggregate, precipitate, binding non-specifically, etc.) were excluded. Good binders were assayed in a broader concentration range from 6.25 to 800 µM in 2-fold dilutions under the same conditions.
Raw sensorgrams were corrected for DMSO and double referenced (subtraction of the reference flow cell followed by subtraction of the closest buffer blank), which responses were corrected with a reference flow cell and a blank buffer injections. Corrected sensorgrams were y-axis and x-axis corrected at the point of fragment injection. Responses for the varied concentrations for a fragment were overlaid. […]

[3] = biological target: T1, hAQP1; assay: Stopped-flow water permeability assay of hAQP1 proteoliposomes; type: biochemical
Description: Liposomes used in this work were prepared using film rehydration. In this procedure, a thin lipid film of Escherichia coli lipids is formed by drying under a nitrogen stream lipid extract powder (Avanti Polar Lipids Inc., Alabaster, AL, USA) in chloroform. After at least 2 h in a vacuum desiccator, purified aquaporin protein in detergent was added and supplemented with reconstitution buffer (20 mM Tris–HCl pH 8.0) to obtain a protein-to-lipid molar ratio of 1:400. A volume of 1 mL of this reconstitution mixture was incubated for 1 h at room temperature. Uniform sized liposomes were obtained by extrusion through a 400 nm pore-size polycarbonate membrane using an Avestin extruder. […]
The water permeability of proteoliposomes reconstituted with purified aquaporin was determined in a SX20 stopped-flow spectrometer (Applied Photophysics, Leatherhead, UK) with a dead time of 1.1 ms. […] The solution osmolarities were measured using a vapor pressure osmometer (Wescor, Logan, UT, USA). […] The measured average diameter of control liposomes and hAQP1-proteoliposomes were 368 and 262 nm, respectively.
Data was acquired by the Pro-Data SX software and analyzed by Pro-Data Viewer software (Applied Photophysics), where the measured light scattering intensity signals were fitted to an exponential function to obtain the rate constants. […]

[4] = test system: human red blood cells; assay: Stopped-flow water permeability assay using human red blood cells; type: cell-based; conditions: tested at 1 mM
Description: As indicated in the introduction, the binders found should not necessarily show inhibition. Nevertheless, we performed stopped-flow assays to test the effects of the seven fragments in Figure 6 on hAQP1 water permeability using human red blood cells. Based on the values of the rate constants of the scattering increase, none of these fragments produced a significant reduction in water permeability when tested at 1 mM (not shown). Several factors may account for this. […] In addition, hAQP1 in red blood cells is highly glycosylated compared to the hAQP1 purified from insect cells, and this may affect binding affinity. Another factor is the orientation of the protein in the membrane, as in theory only one side of the protein (extracellular) is exposed to the drug in RBC assays, whereas both extramembrane domains are exposed when the protein is solubilized in micelles. Another factor, also noted by Seeliger et al., is the high density of AQP1 at the membrane of red blood cells. […] We are at present unable to explain this behavior or relate it to inhibition of hAQP1.

[5] = biological target: T2, E. coli aquaporin Z (E. coli), P60844; assay: native gel or EMSA; blue-native PAGE (4%-16% Bis-Tris gel, 4 °C) of purified protein in sample buffer with 100 mM OG, 750 mM aminocaproic acid, 50 mM Bis-Tris HCl pH 7.0, 0.5 mM EDTA; conditions: remark: other sources report otherwise
[6] = 1:1 steady-state binding model, 6.25 to 800 µM in 2-fold dilutions, 25 °C, read-out: SPR (KD)
[7] = inset table of the Figure 5 sensorgram, read-out: KD (inset table)

Molecule	ΔTagg (+/−) [1]	Tagg [1]	SPR binding behaviour [2]	Kd [2, 6]	Kd [2, 7]	also measured
NCCNCc1ccccc1 [SB01744]	+	58.7 ± 0.2 °C				dose-dependency of hAQP1 stabilization [1]: could not be interpreted due to inconsistencies in the results
Nc1cccc(CN2CCCC2)c1 [CC55714]	+	63.6 ± 0.4 °C				
NCCc1coc2ccccc12 [CC40813]	−	50.3 °C	binding did not achieve saturation equilibrium at higher concentrations			Kd ([2]; KD (inset table), inset table of the Figure 5 sensorgram): 133 µM; Kd ([2]; SPR (KD), 1:1 steady-state binding model, 6.25 to 800 µM in 2-fold dilutions, 25 °C): 133 µM
CNCc1scc2c1OCCO2 [CC47846]	+	70.0 ± 1.2 °C				
NCc1ccc(-c2ccc(C(F)(F)F)cn2)cc1 [CC53013]	−	48.6 °C	fast-on, fast-off kinetics	1310 µM	1310 µM	
[Cl][Hg][Cl] [HgCl2, mercuric chloride]						average fitted rate constant (k) ([3]; 300 µM, 23 °C, means ± S.E., n = 6, without inhibitor 109.4 (±1.9)): 8.56 (±0.03) s^−1; osmotic water permeability coefficient (Pf) ([3]; proteoliposomes pre-incubated with 300 µM, without inhibitor Pf = 0.053): 0.0041 cm/s
c1ccc2c(c1)CCNCC2 [MO08607]	+	59.0 ± 0.3 °C		962 µM	962 µM	dose-dependency of hAQP1 stabilization [1]: can be considered a true binder; Tagg of hAQP1 ([1]; 50 μM): 61.8 ± 0.6 °C; Tagg of hAQP1 ([1]; 400 µM): 66.3 ± 0.1 °C; Tagg of hAQP1 ([1]; 2000 µM): 86.7 ± 7.2 °C
OC1CCCNC1 (stereo not shown) [AC36708]	+	62.9 ± 0.4 °C				
Cc1cc2cc(N)ccc2[nH]1 [AC34875]	−	50.9 °C	binding did not achieve saturation equilibrium at higher concentrations	225 µM	225 µM	
Nc1snnc1-c1ccc(C(F)(F)F)cc1 [MO00656]	−	51.8 °C	fast-on, fast-off kinetics	> 800 µM		
OCc1cccc(-c2ccco2)c1 [CC46109]	+			982 µM	982 µM	amplitude of the stopped-flow traces [4]: large amplitude reduction in the traces
NCc1cccc(N2CCCCC2)n1 [CC38113]	+	63.3 ± 0.1 °C		62 µM	62.2 µM	amplitude of the stopped-flow traces [4]: large amplitude reduction in the traces
Nc1ccc2c(c1)OCCO2 [SB00353]	−	51.1 °C		902 µM	902 µM	
O=Nc1c(O)ccc2ccccc12 [AC15153]				337 µM	337 µM	
NCCNc1cccc2ccccc12 [AC42399]	−	48.0 °C	fast-on, fast-off kinetics	546 µM		
B1						stoichiometry N [5]: 8

Reference: PMC4848905, “Fragment Screening of Human Aquaporin 1” (International Journal of Molecular Sciences, 2016)
